Consider 1 compound from patent publication US5900434A, “Method for inhibiting the production of interleukin-1 or tumor necrosis factor-α by administering acanthoic acid” (Korea Institute of Science and Technology, priority 1994, dated 1999).

One data set relates to rat. The following applies: cited from earlier work.
In data set [1] the test system is H2O2 production in human monocytes and macrophages. As to the kind of experiment: Production of H2O2 in silica-stimulated human monocytes and macrophages. It is filed as cell-based. The following applies: 10 μg/ml, 1 hour, 100 μg/ml silica, FIG. 5. The protocol:
Normal human peripheral blood was heparin-treated and diluted with equal amount of Hank's balanced salt solution (HBSS: Ca^2+ and Mg^2+ free). The diluted blood was put into a centrifuge tube containing therein Ficoll-Hypaque(Sigma, St. Louis, Mo., U.S.A.) layer having a density of 1.077 piled up on Ficoll-Hypaque layer having a density of 1.119, and then centrifuged at 700×g for 30 minutes to obtain monocytes from the layer between Ficoll-Hypaque layer having a density of 1.077 and serum layer, and neutrophils from the layer between Ficoll-Hypaque layer having a density of 1.077 and that having a density of 1.119. The separated cells were washed twice with 4° C. HBSS(Ca^2+ and Mg^2+ free) and suspended in RPMI 1640 medium(Gibco, Grand Island, N.Y., U.S.A.) containing 10% fetal bovine serum(FBS, Hyclone, Logan, Utah, U.S.A.). […] The amount of H2 O2 was determined by a microassay employing 96-well microplate as follows. […] When the incubation was completed, 3M NaOH was added to the wells in an amount of 25 μl/well to stop the reaction and O.D. was measured at 620 nm by using ELISA reader(Dynatech Lab. Inc.) to determine the change of colors with respect to the oxidation of phenol. The amount of H2 O2 was determined by employing a standard curve prepared by diluted H2 O2 (Sigma). […]

Data set [2] has as its system experimental silicosis in rat. As to the kind of experiment: Experimental silicosis in rat, lung histology. The note with it: silica 50 mg intrabronchial, 10 mg orally twice a week, 12 to 18 weeks, FIG. 9. It is filed as in vivo, Sprague-Dawley rat. On the procedure: For the purpose of confirming the in vivo anti-fibrogenic activity of acanthoic acid, an experimental silicosis model was established and the effect of acanthoic acid on the silicosis model when administered thereto was determined.
Silica was refined by removing any contaminant, e.g., Fe2 O3, therefrom in accordance with the method of Lugano as described in Am. J. Pathol., 109, 27-36(1982) as follows. Silica powder(Sigma, St. Louis, Mo.; the content of the particles having a diameter of 5 μm is at least 80%) was suspended in 1N HCl and the suspension was heated and washed with distilled water. The resultant was sterilized by dry heating at 200° C. for 2 hours and then used in the following experiment.
A 7 to 8 week-old male Sprague-Dawley rat and a 5-week old female ICR mouse were anesthetized by an intraperitoneal injection of 2 to 5 mg of ketamine chloride. The rat was injected into their bronchia with 50 mg of silica dissolved in 0.5 ml of sterilized PBS and the mouse was injected with 2 mg of silica dissolved in 0.1 ml of sterilized PBS, by using an 1 ml syringe. From the next day after the injection of silica, 10 mg of acanthoic acid was administered orally to the rat and mouse twice a week for a period ranging from 12 to 18 weeks. […]

Another data set has as its system rat hepatocirrhosis. As to the kind of experiment: CCl4-induced hepatocirrhosis in rat, liver histology. The class given is in vivo, Sprague-Dawley rat. The note with it: 0.2 ml orally twice a week, 13 weeks, FIG. 11, E = CCl4 + methanol extract, F = CCl4 + acanthoic acid. An excerpt:
Hepatocirrhosis(hepatic sclerosis) is characterized by the fibrosis of whole liver, complete disruption of liver parenchyma by fibrous septa, and formation of regenerative nodules. It is derived mostly from a chronic hepatitis or chronic alcoholism, however, the precise causes thereof are unknown. In a hepatocirrhosis patient, the amount of cytokines, e.g., TNF-α, which is involved in inflammation and fibrosis, is in an increased state; and, therefore, the inhibition of hepatocirrhosis by acanthoic acid may be determined by the inhibitory activity to TNF-α. To induce the experimental hepatocirrhosis in accordance with the method of Nakataukasa, H., et al. as described in J. Clin. Invest., 85, 1833-1843(1990), 1.0 ml/100 g of body weight of CCl4 solution(50% CCl4 +50% corn oil) was injected intraperitoneally to 4 week old male Sprague-Dawley rats twice a week, and 0.2 ml each of methanol extract of A. koreanum Nakai and acanthoic acid was administered orally at the time of the injection of CCl4 twice a week. After 13 weeks from the start of the test, each of the rats was anesthetized with ether and the blood samples were obtained from the heart to determine serum glutamic-oxaloacetic transaminase(sGOT) value and serum glutamic-pyruvic transaminase(sGPT) value(FIG. 10). […]

Consider `C=C[C@@]1(C)CC=C2C(CCC3[C@](C)(C(=O)O)CCC[C@@]23C)C1` (single isomer, unassigned; (-)) [acanthoic acid, (-)-pimara-9(11),15-diene-19-oic acid], for which the “minimum lethal dose(MLD)” value in the data set on rat is recorded as 1000 mg/kg. Also, the “amount of H2O2” value in data set [1] is “decrease significantly”. Besides, the “lung histology, granuloma and fibrosis (experimental silicosis)” value in data set [2] is “only small-sized granulomas which is not coalesce with each other and a slight fibrosis are observed”. Further, the “liver histology, effect on hepatocirrhosis” value with rat hepatocirrhosis is given as “the inhibitory effect on the hepatocirrhosis is lower than that of E”.
